These results are taken from PubChem BioAssay (NCI).

Among the test systems are HL-60(TB) leukemia; NCI-H23 lung; SN12C renal; UACC-257 melanoma; CAKI-1 renal; NCI-H460 lung; SR leukemia; SK-MEL-28 melanoma; HS 578T breast; BT-549 breast.
Common to all, as to experiment: growth of human tumour cells (NCI), 48 h

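Following 48 hours of exposure in 96-well plates, responses at five concentrations were used to interpolate endpoints linearly. GI50 = concentration required for 50% inhibition of growth. TGI is the concentration that stops growth completely.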

As to `COc1cc([C@@H]2c3cc4c(cc3[C@@H](NC(=O)NO)[C@H]3COC(=O)[C@H]23)OCO4)cc(OC)c1O`, the TGI with HL-60(TB) leukemia, in the test on NCI-H23 lung, with SN12C renal, in the test with UACC-257 melanoma, with CAKI-1 renal and in the test on NCI-H460 lung was more than 100 µM throughout. This compound also showed a TGI with SR leukemia of more than 100 µM. Also, in the test with NCI-H23 lung, the GI50 is 9.31 µM.
On to `COC(=O)[C@@H]1[C@H]2CC[C@]3(C)[C@@H](OC(C)=O)CC[C@H]3[C@@H]2CC[C@H]1C(C)=O`, for which the TGI with HL-60(TB) leukemia, with NCI-H23 lung, in the test with SK-MEL-28 melanoma, with SN12C renal, in the test with UACC-257 melanoma and in the test on CAKI-1 renal was more than 100 µM throughout. Moreover, the TGI in the test with NCI-H460 lung, in the test on HS 578T breast and in the test with BT-549 breast was more than 100 µM throughout.
Regarding `CCOC(=O)/C(=C\c1c(C)[nH]c2ccccc12)P(=O)(OCC)OCC`, the TGI with NCI-H23 lung, in the test with SK-MEL-28 melanoma, in the test on SN12C renal, in the test on UACC-257 melanoma, in the test on CAKI-1 renal and with NCI-H460 lung was more than 100 µM in each case. The TGI in the test with SR leukemia and in the test on HS 578T breast was more than 100 µM throughout.
Turning to `Cn1c(N)c(/C=C/C(=O)Oc2ccccc2)c(=O)n(C)c1=O`, the TGI in the test with HL-60(TB) leukemia was more than 100 µM; with NCI-H23 lung, more than 100 µM; with SK-MEL-28 melanoma it was more than 100 µM; in the test on SN12C renal, more than 100 µM; with UACC-257 melanoma, more than 100 µM; with CAKI-1 renal, 63.8 µM. For the same compound, the TGI in the test with NCI-H460 lung, in the test on HS 578T breast and with BT-549 breast was more than 100 µM in each case.
On to `CCOC(=O)c1ccc(N(CCOS(=O)(=O)c2ccc(C)cc2)CCOS(=O)(=O)c2ccc(C)cc2)cc1`, for which the TGI with NCI-H23 lung, in the test on UACC-257 melanoma, in the test with CAKI-1 renal, in the test with NCI-H460 lung, in the test on HS 578T breast and in the test with BT-549 breast was more than 100 µM each time.
Consider `Oc1ccc(/C=N/c2nccs2)c(O)c1`, for which the TGI in the test with NCI-H23 lung, with UACC-257 melanoma, in the test with CAKI-1 renal, in the test with NCI-H460 lung, with HS 578T breast and in the test on BT-549 breast was more than 100 µM throughout.
In the case of `CN1N=C(c2ccccc2)c2cc(Cl)ccc2N=C1N/N=C/c1ccc(N(C)C)cc1`, the TGI with HL-60(TB) leukemia, with NCI-H23 lung, in the test on SK-MEL-28 melanoma, in the test on SN12C renal, with UACC-257 melanoma and in the test on CAKI-1 renal was more than 100 µM each time. Besides, the TGI with NCI-H460 lung, with SR leukemia and in the test on BT-549 breast was more than 100 µM in each case.
Turning to `Cc1ccc(O)c(C(c2cc(C)ccc2O)c2cc([N+](=O)[O-])ccc2O)c1`, the TGI in the test with HL-60(TB) leukemia worked out at 11.7 µM; in the test on NCI-H23 lung, 28.9 µM; in the test with SK-MEL-28 melanoma it was 39.6 µM; in the test with SN12C renal it was 28.3 µM; in the test with UACC-257 melanoma, 37.6 µM; in the test on CAKI-1 renal it was 24.8 µM. Besides, the TGI in the test on SR leukemia was determined as 39.1 µM; in the test on HS 578T breast it was 37.9 µM.
On to `COc1nc2c(c(=O)[nH]1)N=C(c1ccc(Cl)cc1)CC(c1ccccc1)N2` (centres undefined), for which the TGI in the test with NCI-H23 lung is more than 100 µM; in the test with SK-MEL-28 melanoma, 54.1 µM; in the test on SN12C renal it was 47.1 µM; with UACC-257 melanoma, more than 100 µM; in the test on CAKI-1 renal it was 66.2 µM; in the test on NCI-H460 lung, 69.3 µM. For the same compound, the TGI with SR leukemia and with BT-549 breast was more than 100 µM each time.
Consider `N[C@H]1CCN(c2c(F)cc3c(=O)c(C(=O)O)cn4c3c2Oc2c-4ccc3c2ccc2ccccc23)C1`, for which the TGI is more than 85.6 µM in the test on HL-60(TB) leukemia; more than 71.7 µM in the test with NCI-H23 lung; more than 100 µM with SK-MEL-28 melanoma; more than 100 µM in the test with SN12C renal; more than 25.5 µM in the test with CAKI-1 renal; 2.42 µM with NCI-H460 lung. Moreover, the TGI in the test on SR leukemia was more than 100 µM; in the test with BT-549 breast, more than 69.3 µM. For the same compound, in the test with SR leukemia, the GI50 is 0.283 µM.
With `CC[C@]1(Cc2ccc(OC)c(OC)c2)C=[N+]([O-])O[C@H](OCc2ccccc2)[C@@H]1OC(C)=O`, the TGI with HL-60(TB) leukemia was 36.3 µM; with NCI-H23 lung, more than 100 µM; in the test on SK-MEL-28 melanoma, 84.6 µM; in the test on UACC-257 melanoma it was more than 100 µM; in the test on CAKI-1 renal, 80.9 µM; in the test on NCI-H460 lung, more than 100 µM. The TGI with SR leukemia came to 48.2 µM; in the test with HS 578T breast, 60.5 µM.
In the case of `O=C1c2c(O)cccc2Cc2cc(CO)cc(O)c21`, the TGI with HL-60(TB) leukemia turned out to be 3.1 µM; with NCI-H23 lung it was 6.06 µM; in the test with SK-MEL-28 melanoma, 27.3 µM; in the test with SN12C renal it was 16.9 µM; with UACC-257 melanoma, 5.64 µM; in the test on NCI-H460 lung it was 8.04 µM. Further, the TGI with SR leukemia amounted to 12.1 µM; with BT-549 breast it was 86 µM.
Turning to `CC(C)(C)NC(=S)N/N=C/c1ccccn1`, the TGI was more than 100 µM in the test on NCI-H23 lung; more than 100 µM with SK-MEL-28 melanoma; more than 96.1 µM in the test with SN12C renal; more than 100 µM with CAKI-1 renal; more than 100 µM with NCI-H460 lung; more than 100 µM in the test with HS 578T breast. Moreover, the TGI in the test on BT-549 breast was more than 100 µM.
For `CCN1C/C(=C\c2ccc(Cl)cc2)c2[nH]c(=O)c(C#N)c(-c3ccc(Cl)cc3)c2C1`, the TGI in the test with HL-60(TB) leukemia, in the test on NCI-H23 lung, in the test on SK-MEL-28 melanoma, in the test on SN12C renal, with UACC-257 melanoma and in the test on NCI-H460 lung was more than 100 µM in each case. Further, the TGI in the test with SR leukemia and with BT-549 breast was more than 100 µM throughout.
Consider `O=C(CCN1CCCC1)c1ccc(Oc2ccc(F)cc2)cc1`, for which the TGI is 37.8 µM in the test on HL-60(TB) leukemia; more than 100 µM in the test on NCI-H23 lung; more than 100 µM in the test with SK-MEL-28 melanoma; more than 100 µM in the test with SN12C renal; more than 100 µM in the test with UACC-257 melanoma; 30.1 µM in the test with CAKI-1 renal. The TGI in the test with NCI-H460 lung, in the test on HS 578T breast and in the test with BT-549 breast was more than 100 µM in each case.
Take `Nn1c(CCCCCCCCc2n[nH]c(=S)n2N)n[nH]c1=S`: the TGI in the test on HL-60(TB) leukemia, with NCI-H23 lung, with SK-MEL-28 melanoma, in the test with SN12C renal, in the test with UACC-257 melanoma and in the test with CAKI-1 renal was more than 100 µM each time. In addition, the TGI with NCI-H460 lung, in the test on SR leukemia and in the test on BT-549 breast was more than 100 µM each time.
